What follows are compounds tested against HCV-NS3/4A protease (Hepacivirus hominis (Hepatitis C virus), UniProt O92972) (assay: HCV-NS3/4A protease inhibition, in vitro FRET assay). Details: IC50, purified HCV-NS3/4A protease.
HCV-NS3/4A protease, sequence (O92972 1027-1207, other chains not shown): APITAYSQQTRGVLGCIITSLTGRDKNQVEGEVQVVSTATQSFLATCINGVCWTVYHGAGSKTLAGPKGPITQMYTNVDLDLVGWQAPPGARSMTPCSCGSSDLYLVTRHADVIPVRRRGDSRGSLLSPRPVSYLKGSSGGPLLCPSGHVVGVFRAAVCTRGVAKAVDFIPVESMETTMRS
Assay type: biochemical
`CCn1c(NN)nc2ccc(C)cc2c1=O` [Compound 15, 3-Ethyl-2-hydrazinyl-6-methyl-3H-quinazolin-4-one] gave an IC50 of 178 ± 3.9 µM. Compound `CCn1c(NN)nc2cc3ccccc3cc2c1=O` [Compound 8, 3-Ethyl-2-hydrazinyl-benzo[g]quinazolin-4(3H)-one] has an IC50 of 78.8 ± 1.7 µM. Work on `Cn1c(NN)nc2cc3ccccc3cc2c1=O` [Compound 7, 3-Methyl-2-hydrazinylbenzo[g]quinazolin-4(3H)-one] yielded an IC50 of 22.3 ± 0.46 µM. In the case of `Cc1ccc2nc(NN)n(C)c(=O)c2c1` [Compound 14, 3-Methyl-2-hydrazinyl-6-methyl-3H-quinazolin-4-one], the IC50 is reported as 25.5 ± 0.55 µM.
